According to patent US8026232B2, “Benzothiophene oxide derivative and salt thereof” (Toyama Chemical Co., Ltd., priority 2008, dated 2011):
Counter-ions that a name gives are not always drawn.

Test: Test Example 1: concentration of compound A in plasma and brain after oral administration to rats
Assay type: in vivo, rat
Settings: for Brain MRT (mean residence time) of the compound A / Brain T1/2 (elimination half-life) of the compound A / Plasma MRT (mean residence time) of the compound A / Plasma T1/2 (elimination half-life) of the compound A: rat (Crl: CD male), oral, without fasting, 56 mg/kg compound A maleate or 58 mg/kg compound A oxide maleate; for Brain MRT (mean residence time) of the compound A / Brain T1/2 (elimination half-life) of the compound A: compound A measured in brain; for Plasma MRT (mean residence time) of the compound A / Plasma T1/2 (elimination half-life) of the compound A: compound A measured in plasma
Method: In the compound A administration solution, the concentration of the compound A maleate was adjusted to be 14 mg/mL by dissolving the compound A maleate in a physiological saline solution. In the compound A oxide administration solution, the concentration of the compound A oxide maleate was adjusted to be 14.54 mg/mL by dissolving the compound A oxide maleate in a physiological saline solution.
Each of the administration solutions was orally administered to rats (Crl: CD strain male rat: 8 weeks old) without fasting. The dosage was set at 56 mg/kg for the compound A administration group and 58 mg/kg for the compound A oxide administration group.
At 0.25, 0.5, 1, 2, 5, 8, 10 and 12 hours after the administration, for each group, heparinized whole blood was collected from the aorta abdominalis under mild ether anesthesia, and then the rats were killed by exsanguination and the brains were excised.
The collected blood was centrifuged at 4° C. for 10 minutes at approximately 1600×g to obtain the plasma. To 100 μL of the resulting plasma was added 900 μL of distilled water containing 25 ng/mL of the internal standard substance and 25 μL of phosphoric acid, and the resulting mixture was stirred, followed by adding to a solid-phase extraction plate (Oasis HLB 10 mg or 30 mg, manufactured by Waters) which was conditioned with methanol and distilled water. The solid-phase extraction plate was washed with 2 mL of distilled water, followed by eluting with 2 mL of acetonitrile. The eluate was concentrated and dried-up and then dissolved in a mobile phase A solution, followed by centrifuging at 4° C. for 10 minutes at approximately 1600×g. The resulting supernatant was subjected to a liquid chromatography-tandem mass spectrometer to determine the concentration of the compound A in the plasma of each group.
The excised brains were homogenized with 25% ammonia water/methanol (1:49) (10-fold volume of the wet brain weight) and then 2 mL of the homogenate was centrifuged at 4° C. for 10 minutes at approximately 1600×g to separate the supernatant. To the sediment was added 2 mL of 25% ammonia water/methanol (1:49), followed by centrifuging at 4° C. for 10 minutes at approximately 1600×g. These supernatants were combined and concentrated and dried-up and then dissolved in 1 mL of distilled water containing 25 ng/mL of the internal standard substance. To the resulting solution was added 25 μL of phosphoric acid and the resulting mixture was stirred, followed by subjecting to a solid-phase extraction operation similar to that for the above plasma. The resulting eluate was concentrated and dried-up and then dissolved in the mobile phase A solution or 50% methanol, followed by centrifuging at 4° C. for 10 minutes at approximately 1600×g. The resulting supernatant was subjected to the liquid chromatography-tandem mass spectrometer to determine the concentration of the compound A in the brain of each group.
The following instruments and conditions were used for the measurement of the concentration of the compound A.

[1] = rat, oral administration of the compound A oxide, result in words

## O=C(O)/C=C\C(=O)O.OC1CN(CCCOCCc2ccc3sccc3c2)C1 [Compound A Maleate, 1-(3-(2-(1-benzothiophen-5-yl)ethoxy)propyl)azetidin-3-ol maleate, reference compound]
  Brain MRT (mean residence time) of the compound A: 3.01 h
  Brain T1/2 (elimination half-life) of the compound A: 1.53 h
  Plasma MRT (mean residence time) of the compound A: 2.86 h
  Plasma T1/2 (elimination half-life) of the compound A: 1.56 h

## [O-][s+]1ccc2cc(CCOCCCN3CC(O)C3)ccc21 (stereo not shown) [Compound A oxide Maleate, 1-(3-(2-(1-benzothiophen-5-yl)ethoxy)propyl)azetidin-3-ol S-oxide maleate]
  Brain MRT (mean residence time) of the compound A: 5.72 h
  Brain T1/2 (elimination half-life) of the compound A: 2.28 h
  Plasma MRT (mean residence time) of the compound A: 5.41 h
  Plasma T1/2 (elimination half-life) of the compound A: 2.69 h

## [O-][s+]1ccc2cc(CCOCCCN3CC(O)C3)ccc21 (stereo not shown) [compound A oxide, 1-(3-(2-(1-benzothiophen-5-yl)ethoxy)propyl)azetidin-3-ol S-oxide]
[1]
  concentration of the compound A in the plasma and brain: maintained at a high concentration
  residence time of the compound A in the body: prolonged
